# Measurements from PubChem BioAssay AID1919016 (Molecular Pharmacology Branch, DTP, NCI, 2023).
# Test system: NCI-H196 complex spheroid growth, percent test/control
# Assay: Anticancer human tumor NCI-H196 cell line growth inhibition [AhR];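 also: seven days of drug exposure starting three days after plating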;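 as to viability, T/C: 100% = DMSO vehicle control wells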
# Conditions: for IC50: curve of first compound; for viability, T/C: stronger effect = lower value
# Summary of the method: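 Complex tumor spheroids co-cultured with HUVEC and human MSC stroma; AhR antagonists tested in combination with standard-of-care and investigational agents. Top concentration at or near clinical Cmax (else 10 microM), half-log dilutions; growth expressed as percent test/control.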
# [1] = second compound 0.1 µM, first compound 0.0316 µM
# [2] = second compound 0.1 µM, first compound 0.1 µM
# [3] = second compound 0.1 µM, first compound 0.316 µM
# [4] = second compound 0.1 µM, first compound 1 µM
# [5] = second compound 0.1 µM, first compound 3.16 µM
# [6] = second compound 0.1 µM, first compound 10 µM
# [7] = second compound 0.316 µM, first compound 0.0316 µM
# [8] = second compound 0.316 µM, first compound 0.1 µM
# [9] = second compound 0.316 µM, first compound 0.316 µM
# [10] = second compound 0.316 µM, first compound 1 µM
# [11] = second compound 0.316 µM, first compound 3.16 µM
# [12] = second compound 0.316 µM, first compound 10 µM
# [13] = second compound 1 µM, first compound 0.0316 µM
# [14] = second compound 1 µM, first compound 0.1 µM
# [15] = second compound 1 µM, first compound 0.316 µM
# [16] = second compound 1 µM, first compound 1 µM
# [17] = second compound 1 µM, first compound 3.16 µM
# [18] = second compound 1 µM, first compound 10 µM
# [19] = second compound 3.16 µM, first compound 0.0316 µM
# [20] = second compound 3.16 µM, first compound 0.1 µM
# [21] = second compound 3.16 µM, first compound 0.316 µM
# [22] = second compound 3.16 µM, first compound 1 µM
# [23] = second compound 3.16 µM, first compound 3.16 µM
# [24] = second compound 3.16 µM, first compound 10 µM
# [25] = second compound 10 µM, first compound 0.0316 µM
# [26] = second compound 10 µM, first compound 0.1 µM
# [27] = second compound 10 µM, first compound 0.316 µM
# [28] = second compound 10 µM, first compound 1 µM
# [29] = second compound 10 µM, first compound 3.16 µM
# [30] = second compound 10 µM, first compound 10 µM
Compound,IC50 (second compound 0.1 µM),IC50 (second compound 0.316 µM),IC50 (second compound 1 µM),IC50 (second compound 3.16 µM),IC50 (second compound 10 µM),"viability, T/C [1]","viability, T/C [2]","viability, T/C [3]","viability, T/C [4]","viability, T/C [5]","viability, T/C [6]","viability, T/C [7]","viability, T/C [8]","viability, T/C [9]","viability, T/C [13]","viability, T/C [14]","viability, T/C [19]","viability, T/C [20]","viability, T/C [25]","viability, T/C [26]",further results
COc1cc(Nc2ncc3c(n2)-c2ccc(Cl)cc2C(c2c(F)cccc2OC)=NC3)ccc1C(=O)O + Cc1ccccc1N=Nc1ccc(NC(=O)c2ccnn2C)c(C)c1,> 10000 nM,> 10000 nM,> 10000 nM,> 10000 nM,> 10000 nM,83.2%,94.4%,108%,107%,123%,116%,83.3%,89.3%,106%,85.5%,88.9%,85.4%,86%,89.8%,88.4%,"viability, T/C [10]: 118%; viability, T/C [11]: 119%; viability, T/C [12]: 115%; viability, T/C [15]: 95.9%; viability, T/C [16]: 94.2%; viability, T/C [17]: 111%; viability, T/C [18]: 104%; viability, T/C [21]: 102%; viability, T/C [22]: 97.5%; viability, T/C [23]: 109%; viability, T/C [24]: 117%; viability, T/C [27]: 96.3%; viability, T/C [28]: 91.1%; viability, T/C [29]: 108%; viability, T/C [30]: 104%"
Cn1ncnc1C1c2n[nH]c(=O)c3cc(F)cc(c23)NC1c1ccc(F)cc1 (stereo not given) + Cc1ccccc1N=Nc1ccc(NC(=O)c2ccnn2C)c(C)c1,> 100 nM,> 100 nM,> 100 nM,> 100 nM,> 100 nM,102%,103%,,,,,101%,104%,,102%,106%,93.5%,102%,92.8%,92.6%,"viability, T/C (second compound 0.1 µM, first compound 0.000316 µM): 96.3%; viability, T/C (second compound 0.1 µM, first compound 0.001 µM): 112%; viability, T/C (second compound 0.1 µM, first compound 0.00316 µM): 105%; viability, T/C (second compound 0.1 µM, first compound 0.01 µM): 101%; viability, T/C (second compound 0.316 µM, first compound 0.000316 µM): 108%; viability, T/C (second compound 0.316 µM, first compound 0.001 µM): 107%; viability, T/C (second compound 0.316 µM, first compound 0.00316 µM): 108%; viability, T/C (second compound 0.316 µM, first compound 0.01 µM): 106%; viability, T/C (second compound 1 µM, first compound 0.000316 µM): 102%; viability, T/C (second compound 1 µM, first compound 0.001 µM): 102%; viability, T/C (second compound 1 µM, first compound 0.00316 µM): 109%; viability, T/C (second compound 1 µM, first compound 0.01 µM): 107%; viability, T/C (second compound 3.16 µM, first compound 0.000316 µM): 94.2%; viability, T/C (second compound 3.16 µM, first compound 0.001 µM): 108%; viability, T/C (second compound 3.16 µM, first compound 0.00316 µM): 112%; viability, T/C (second compound 3.16 µM, first compound 0.01 µM): 98.2%; viability, T/C (second compound 10 µM, first compound 0.000316 µM): 94.2%; viability, T/C (second compound 10 µM, first compound 0.001 µM): 102%; viability, T/C (second compound 10 µM, first compound 0.00316 µM): 96.7%; viability, T/C (second compound 10 µM, first compound 0.01 µM): 94.7%"
NS(=O)(=O)OCC1CC(n2ccc3c(NC4CCc5ccccc54)ncnc32)CC1O (stereo not given) + Cc1ccccc1N=Nc1ccc(NC(=O)c2ccnn2C)c(C)c1,> 10000 nM,> 10000 nM,> 10000 nM,> 10000 nM,2070 nM,83.7%,84.2%,76.6%,55.9%,70.2%,70%,79.7%,81.2%,81.5%,90.1%,87.6%,82.4%,90.7%,83.8%,87.1%,"viability, T/C [10]: 67.4%; viability, T/C [11]: 74.6%; viability, T/C [12]: 61%; viability, T/C [15]: 85.9%; viability, T/C [16]: 60.6%; viability, T/C [17]: 73.7%; viability, T/C [18]: 60.8%; viability, T/C [21]: 81.6%; viability, T/C [22]: 61.5%; viability, T/C [23]: 60.9%; viability, T/C [24]: 58.8%; viability, T/C [27]: 68.2%; viability, T/C [28]: 55.5%; viability, T/C [29]: 46.7%; viability, T/C [30]: 47.4%"
O=C(C=Cc1cccc(S(=O)(=O)Nc2ccccc2)c1)NO + Cc1ccccc1N=Nc1ccc(NC(=O)c2ccnn2C)c(C)c1,1480 nM,1760 nM,1720 nM,1870 nM,2030 nM,93%,100%,87.8%,62%,25.5%,0.66%,92.7%,96.5%,104%,102%,94.5%,93.6%,91.9%,87.9%,90.8%,"viability, T/C [10]: 69.9%; viability, T/C [11]: 27.4%; viability, T/C [12]: 0.67%; viability, T/C [15]: 90.4%; viability, T/C [16]: 74.2%; viability, T/C [17]: 23.7%; viability, T/C [18]: 3.01%; viability, T/C [21]: 91.1%; viability, T/C [22]: 72%; viability, T/C [23]: 31.3%; viability, T/C [24]: 1.68%; viability, T/C [27]: 81.6%; viability, T/C [28]: 72.4%; viability, T/C [29]: 36.4%; viability, T/C [30]: 0.98%"
